From ChEMBL document CHEMBL3526033, “Identification of human liver cytochrome P450 enzymes involved in the metabolism of SCH 530348 (Vorapaxar), a potent oral thrombin protease-activated receptor 1 antagonist” (Drug Metab Dispos, 2011)
Values belong to the compound of their own block, whether it stands above or below them.

Legend:
Cytochrome P450 2C8 = Cytochrome P450 2C8 (Homo sapiens, UniProt P10632); assay: Activity of human recombinant CYP2C8 assessed as enzyme-mediated 2-hydroxyethyl (1R,3aR,4aR,6R,8aR,9S,9aS)-9-((E)-2-(5-(3-fluorophenyl)pyridin-2-yl)vinyl)-1-methyl-3-oxododecahydronaphtho[2,3-c]furan-6-ylcarbamate formation at 25 uM after 120 mins by LC-MS/MS analysis in presence of NADPH; assay type: ADME; details: 2 h
Cytochrome P450 2C8, sequence (P10632 whole entry): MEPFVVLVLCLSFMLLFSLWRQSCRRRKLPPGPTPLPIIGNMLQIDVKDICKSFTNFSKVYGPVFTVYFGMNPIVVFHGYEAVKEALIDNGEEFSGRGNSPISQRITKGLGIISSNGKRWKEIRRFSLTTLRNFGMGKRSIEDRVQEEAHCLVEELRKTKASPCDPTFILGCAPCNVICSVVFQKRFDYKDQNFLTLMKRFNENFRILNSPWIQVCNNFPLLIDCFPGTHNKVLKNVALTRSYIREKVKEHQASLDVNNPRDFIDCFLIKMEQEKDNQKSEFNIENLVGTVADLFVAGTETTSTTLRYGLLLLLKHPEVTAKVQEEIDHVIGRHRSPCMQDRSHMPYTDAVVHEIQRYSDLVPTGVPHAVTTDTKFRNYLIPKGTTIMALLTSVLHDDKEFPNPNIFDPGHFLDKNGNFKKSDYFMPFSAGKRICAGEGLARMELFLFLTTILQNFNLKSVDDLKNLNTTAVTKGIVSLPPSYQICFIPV

Cytochrome P450 3A4 [1] = molecular target: T1, Cytochrome P450 3A4 (Homo sapiens, UniProt P08684); assay: Activity of human recombinant CYP3A4 assessed as enzyme-mediated (3R,3aS,4S,4aR,7R,8aR,9aR)-7-amino-4-((E)-2-(5-(3-fluorophenyl)pyridin-2-yl)vinyl)-3-methyldecahydronaphtho[2,3-c]furan-1(3H)-one formation assessed per nmol of enzyme at 10 uM after 120 mins by LC-MS/MS analysis in presence of NADPH; assay type: ADME; details: 2 h
T1 sequence (P08684 whole entry): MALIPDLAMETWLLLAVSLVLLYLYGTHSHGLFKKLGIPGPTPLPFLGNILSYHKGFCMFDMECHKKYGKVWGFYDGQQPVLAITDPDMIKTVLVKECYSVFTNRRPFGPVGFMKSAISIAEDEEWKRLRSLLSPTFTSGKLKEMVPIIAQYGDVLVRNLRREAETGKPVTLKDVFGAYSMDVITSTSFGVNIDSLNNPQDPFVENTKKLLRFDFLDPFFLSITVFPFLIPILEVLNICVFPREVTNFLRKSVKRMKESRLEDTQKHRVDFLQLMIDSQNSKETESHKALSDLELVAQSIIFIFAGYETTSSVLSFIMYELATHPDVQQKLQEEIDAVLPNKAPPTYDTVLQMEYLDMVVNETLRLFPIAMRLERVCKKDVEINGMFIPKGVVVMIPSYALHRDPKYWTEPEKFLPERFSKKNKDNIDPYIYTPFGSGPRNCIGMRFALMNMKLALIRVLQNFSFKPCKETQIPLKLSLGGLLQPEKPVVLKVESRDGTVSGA

Cytochrome P450 3A5 = Cytochrome P450 3A5 (Homo sapiens, UniProt P20815); assay: Activity of human recombinant CYP3A5 assessed as enzyme-mediated drug metabolism at 10 uM after 120 mins by LC-MS/MS analysis; assay type: ADME; details: 2 h
Cytochrome P450 3A5, sequence (P20815 whole entry): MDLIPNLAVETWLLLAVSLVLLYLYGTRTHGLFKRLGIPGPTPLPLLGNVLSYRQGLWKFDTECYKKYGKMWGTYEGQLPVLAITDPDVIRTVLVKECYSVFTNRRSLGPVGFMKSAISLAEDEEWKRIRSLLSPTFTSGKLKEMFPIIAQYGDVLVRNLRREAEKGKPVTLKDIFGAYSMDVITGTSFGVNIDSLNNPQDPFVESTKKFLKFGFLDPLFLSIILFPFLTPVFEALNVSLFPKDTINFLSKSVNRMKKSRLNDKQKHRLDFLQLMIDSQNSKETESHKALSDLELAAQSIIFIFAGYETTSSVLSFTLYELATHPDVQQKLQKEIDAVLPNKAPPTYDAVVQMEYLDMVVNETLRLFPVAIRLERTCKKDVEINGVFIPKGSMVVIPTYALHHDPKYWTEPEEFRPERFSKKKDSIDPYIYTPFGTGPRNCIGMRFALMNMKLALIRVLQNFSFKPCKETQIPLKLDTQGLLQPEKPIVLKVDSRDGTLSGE

Liver microsome [2] = assay: Drug metabolism in human liver microsomes assessed as (3R,3aS,4S,4aR,7R,8aR,9aR)-7-amino-4-((E)-2-(5-(3-fluorophenyl)pyridin-2-yl)vinyl)-3-methyldecahydronaphtho[2,3-c]furan-1(3H)-one formation after 120 mins by LC-MS/MS analysis; assay type: ADME; details: 2 h
Cytochrome P450 4F3 = molecular target: T2, Cytochrome P450 4F3 (Homo sapiens, UniProt Q08477); assay: Activity of human recombinant CYP4F3B assessed as enzyme-mediated drug metabolism treated with 25 uM vorapaxar after 120 mins by LC-MS/MS analysis in presence of NADPH; assay type: ADME; details: 2 h
T2 sequence (Q08477 whole entry): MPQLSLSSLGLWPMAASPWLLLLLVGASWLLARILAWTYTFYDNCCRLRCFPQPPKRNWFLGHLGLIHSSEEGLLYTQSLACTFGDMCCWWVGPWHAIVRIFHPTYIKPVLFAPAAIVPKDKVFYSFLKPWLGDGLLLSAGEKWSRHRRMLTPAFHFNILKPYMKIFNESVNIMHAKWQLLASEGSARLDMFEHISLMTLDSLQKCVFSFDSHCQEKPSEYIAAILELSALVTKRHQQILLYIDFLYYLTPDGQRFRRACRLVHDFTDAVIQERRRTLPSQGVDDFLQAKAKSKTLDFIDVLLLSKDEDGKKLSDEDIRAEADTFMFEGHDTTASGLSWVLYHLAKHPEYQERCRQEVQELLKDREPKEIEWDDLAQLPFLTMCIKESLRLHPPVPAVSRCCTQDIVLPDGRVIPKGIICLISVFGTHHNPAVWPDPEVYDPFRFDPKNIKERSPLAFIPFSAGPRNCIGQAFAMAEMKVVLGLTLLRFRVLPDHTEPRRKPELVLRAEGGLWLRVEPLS

Cytochrome P450 4F2 = Cytochrome P450 4F2 (Homo sapiens, UniProt P78329); assay: Activity of human recombinant CYP4F2 assessed as enzyme-mediated drug metabolism treated with 25 uM vorapaxar after 120 mins by LC-MS/MS analysis in presence of NADPH; assay type: ADME; details: 2 h
Cytochrome P450 4F2, sequence (P78329 whole entry): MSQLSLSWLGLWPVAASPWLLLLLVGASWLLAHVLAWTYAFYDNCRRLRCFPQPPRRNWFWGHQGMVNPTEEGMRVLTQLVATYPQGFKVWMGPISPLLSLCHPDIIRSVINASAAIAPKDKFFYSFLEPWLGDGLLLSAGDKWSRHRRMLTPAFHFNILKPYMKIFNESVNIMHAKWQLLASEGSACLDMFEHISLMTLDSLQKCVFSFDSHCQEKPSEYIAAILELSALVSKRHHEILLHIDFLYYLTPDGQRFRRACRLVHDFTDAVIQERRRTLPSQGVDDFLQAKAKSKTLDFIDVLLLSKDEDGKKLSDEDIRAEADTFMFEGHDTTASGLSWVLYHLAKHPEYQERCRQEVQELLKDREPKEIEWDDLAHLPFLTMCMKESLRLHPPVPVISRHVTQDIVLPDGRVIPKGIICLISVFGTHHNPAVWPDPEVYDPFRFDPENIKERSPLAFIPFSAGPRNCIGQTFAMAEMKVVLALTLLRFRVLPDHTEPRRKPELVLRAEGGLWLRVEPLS

Cytochrome P450 1A1 = molecular target: T3, Cytochrome P450 1A1 (Homo sapiens, UniProt P04798); assay: Activity of human recombinant CYP1A1 assessed as enzyme-mediated drug metabolism treated with 25 uM vorapaxar after 120 mins by LC-MS/MS analysis in presence of NADPH; assay type: ADME; details: 2 h
T3 sequence (P04798 whole entry): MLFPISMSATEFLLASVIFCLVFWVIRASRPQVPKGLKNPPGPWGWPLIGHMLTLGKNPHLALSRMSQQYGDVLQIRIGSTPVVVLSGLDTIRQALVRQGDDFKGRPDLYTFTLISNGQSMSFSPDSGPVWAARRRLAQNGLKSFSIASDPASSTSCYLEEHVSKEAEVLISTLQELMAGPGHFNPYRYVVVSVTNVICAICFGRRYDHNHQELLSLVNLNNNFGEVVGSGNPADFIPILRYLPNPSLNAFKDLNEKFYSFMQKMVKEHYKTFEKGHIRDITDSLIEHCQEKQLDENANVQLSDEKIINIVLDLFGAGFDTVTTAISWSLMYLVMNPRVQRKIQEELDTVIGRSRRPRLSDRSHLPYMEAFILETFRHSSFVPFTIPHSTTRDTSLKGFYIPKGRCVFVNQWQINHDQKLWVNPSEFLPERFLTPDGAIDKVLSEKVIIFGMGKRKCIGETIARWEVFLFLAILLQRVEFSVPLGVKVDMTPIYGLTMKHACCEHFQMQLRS

Liver microsome [3] = assay: (§1) Drug metabolism in human liver microsomes assessed as 2-hydroxyethyl (1R,3aR,4aR,6R,8aR,9S,9aS)-9-((E)-2-(5-(3-fluorophenyl)pyridin-2-yl)vinyl)-1-methyl-3-oxododecahydronaphtho[2,3-c]furan-6-ylcarbamate formation at 25 uM after 120 mins by LC-MS/MS analysis in presence of NADPH; assay type: ADME; details: 2 h
Cytochrome P450 2J2 = molecular target: T4, Cytochrome P450 2J2 (Homo sapiens, UniProt P51589); assay: Drug metabolism assessed as human recombinant CYP2J2-mediated 2-hydroxyethyl (1R,3aR,4aR,6R,8aR,9S,9aS)-9-((E)-2-(5-(3-fluorophenyl)pyridin-2-yl)vinyl)-1-methyl-3-oxododecahydronaphtho[2,3-c]furan-6-ylcarbamate formation at 25 uM after 120 mins by LC-MS/MS analysis in presence of ketoconazole; assay type: ADME; details: recombinant enzyme, 2 h
T4 sequence (P51589 whole entry): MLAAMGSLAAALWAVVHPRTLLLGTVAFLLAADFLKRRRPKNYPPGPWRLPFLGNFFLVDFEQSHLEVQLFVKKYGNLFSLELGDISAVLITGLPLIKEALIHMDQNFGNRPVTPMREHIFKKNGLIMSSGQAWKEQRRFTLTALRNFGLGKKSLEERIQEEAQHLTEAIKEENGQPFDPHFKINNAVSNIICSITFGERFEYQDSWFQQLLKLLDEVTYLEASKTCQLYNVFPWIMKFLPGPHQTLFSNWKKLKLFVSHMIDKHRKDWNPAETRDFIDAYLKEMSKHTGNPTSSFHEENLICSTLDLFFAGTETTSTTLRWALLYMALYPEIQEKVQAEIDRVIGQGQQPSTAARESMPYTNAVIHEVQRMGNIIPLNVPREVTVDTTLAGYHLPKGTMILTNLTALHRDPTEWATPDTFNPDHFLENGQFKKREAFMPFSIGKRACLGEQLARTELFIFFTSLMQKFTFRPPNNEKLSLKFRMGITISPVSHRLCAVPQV

[4] = Drug metabolism in insect microsomes at 10 uM after 120 mins by LC-MS/MS analysis in presence of NADPH; assay type: ADME, Microsome; details: read-out: Compound recovery
Liver microsome [5] = assay: as §1, with “CYP3A4-specific inhibitory monoclonal antibody” for “NADPH”; assay type: ADME; details: 2 h
Cytochrome P450 3A4 [6] = molecular target: T1, Cytochrome P450 3A4; assay: Drug metabolism assessed as human recombinant CYP3A4-mediated 2-hydroxyethyl (1R,3aR,4aR,6R,8aR,9S,9aS)-9-((E)-2-(5-(3-fluorophenyl)pyridin-2-yl)vinyl)-1-methyl-3-oxododecahydronaphtho[2,3-c]furan-6-ylcarbamate formation at 25 uM after 120 mins by LC-MS/MS analysis in presence of ketoconazole; assay type: ADME; details: recombinant enzyme, 2 h

Drug metabolism (Cytochrome P450 2C8): metabolite_detected
Drug metabolism (Cytochrome P450 3A4 [1]): 109.8 pmol/min
Drug metabolism (Cytochrome P450 3A5): metabolite_not_detected
Km (Liver microsome [2]): 23.5 µM
Structure (SMILES): CCOC(=O)N[C@@H]1CC[C@@H]2[C@@H](C1)C[C@H]1C(=O)O[C@H](C)[C@H]1[C@H]2/C=[14CH]/c1ccc(-c2cccc(F)c2)cn1

Drug metabolism (Cytochrome P450 4F3): metabolite_detected
Drug metabolism (Cytochrome P450 4F2): metabolite_detected
Drug metabolism (Cytochrome P450 1A1): metabolite_detected
Structure (SMILES): C[C@H]1OC(=O)[C@@H]2C[C@@H]3C[C@H](NC(=O)OCCO)CC[C@H]3[C@H](/C=C/c3ccc(-c4cccc(F)c4)cn3)[C@H]12

Vmax (Liver microsome [3]): 0.4 pmol/min
Drug metabolism (Cytochrome P450 2J2): metabolite_not_detected
remaining at 2 h, 10 µM [4]: 98.7%
Drug metabolism (Liver microsome [5]): metabolite_not_detected
Drug metabolism (Cytochrome P450 3A4 [6]): metabolite_not_detected
Structure (SMILES): CCOC(=O)N[C@@H]1CC[C@@H]2[C@@H](C1)C[C@H]1C(=O)O[C@H](C)[C@H]1[C@H]2/C=C/c1ccc(-c2cccc(F)c2)cn1 [VORAPAXAR]
